The experiment has as its target T1, mutant G12C K-RAS (Homo sapiens, UniProt P01116, G12C).
T1 construct: made in house; host or cells: E. coli BL21
As to the kind of experiment: covalent adduct formation (CAF) with mutant G12C K-RAS. The format is binding. Also noted: CAF: unit not given here. The following applies: for % CAF @ 10 μM,1 h: Table 6; for % CAF (60 min) / CAF: after 60 minutes at 10 micromolar; for CAF: Table 3, Pyridone Core-Morpholine Unsubstituted. How it is done: Embodiments disclosed herein are further illustrated by the following examples in Tables 1-4 and the Examples hereinbelow. The Tables indicate the compound number, structure, the observed mass spectral molecular weight peak, and covalent adduct formation (CAF) with a mutant G12C K-RAS after 60 minutes at a concentration of 10 micromolar.

Setting [1] is: Table 2, Pyrimidone Core-Morpholine Substituted.
The mark [2] stands for this setting: Table 1, Pyrimidone Core-Morpholine Unsubstituted.

The structures appear in SMILES notation.

As for `C=CC(=O)N1C[C@H](C)N(c2nc(=O)n3c4c(c(-c5ccc(F)cc5F)c(Cl)cc24)OC[C@H]3CN2CCN(C)CC2=O)C[C@H]1C` [Example 280, (3R)-7-((2S,5R)-4-acryloyl-2,5-dimethylpiperazin-1-yl)-9-chloro-10-(2,4-difluorophenyl)-3-((4-methyl-2-oxopiperazin-1-yl)methyl)-2H-[1,4]oxazino[2,3,4-ij]quinazolin-5(3H)-one], the “% CAF @ 10 μM,1 h” value amounted to 57.5%.
For `C=CC(=O)N1CCN(c2nc(=O)n3c4c(c(-c5c(O)cccc5F)c(Cl)cc24)OC[C@H]3CO)CC1` [Example 20, (3R,10R)-7-(4-acryloylpiperazin-1-yl)-9-chloro-10-(2-fluoro-6-hydroxyphenyl)-3-(hydroxymethyl)-2H-[1,4]oxazino[2,3,4-ij]quinazolin-5(3H)-one], the “% CAF (60 min)” value under setting [1] was 0%.
The compound `C=CC(=O)N1C[C@H](C)N(c2c(C#N)c(=O)n3c4c(c(-c5c(O)cccc5F)c(Cl)cc24)OCC3)C[C@H]1C` [Example 42, (S)-7-((2S,5R)-4-acryloyl-2,5-dimethylpiperazin-1-yl)-9-chloro-10-(2-fluoro-6-hydroxyphenyl)-5-oxo-3,5-dihydro-2H-[1,4]oxazino[2,3,4-ij]quinoline-6-carbonitrile] yielded a CAF of 0.
Consider `C=CC(=O)N1CCN(c2nc(=O)n3c4c(c(-c5c(O)cccc5F)c(Cl)cc24)OC[C@H]3CN2CCC(F)(F)C2)[C@@H](C)C1` (atropisomer, axis not shown) [Example 227, (3R,10R)-7-((S)-4-acryloyl-2-methylpiperazin-1-yl)-9-chloro-3-((3,3-difluoropyrrolidin-1-yl)methyl)-10-(2-fluoro-6-hydroxyphenyl)-2,3-dihydro-5H-[1,4]oxazino[2,3,4-ij]quinazolin-5-one], for which the “% CAF @ 10 μM,1 h” value was 0%.
`C=CC(=O)N1C[C@H](C)N(c2nc(=O)n3c4c(c(-c5ccc(F)cc5F)c(Cl)cc24)OC[C@@H]3CN2CCS(=O)(=O)CC2)C[C@H]1C` [Example 269, (3S)-7-((2S,5R)-4-acryloyl-2,5-dimethylpiperazin-1-yl)-9-chloro-10-(2,4-difluorophenyl)-3-((1,1-dioxidothiomorpholino)methyl)-2H-[1,4]oxazino[2,3,4-ij]quinazolin-5(3H)-one]: the “% CAF @ 10 μM,1 h” value worked out at 94.6%.
Consider `C=CC(=O)N1C[C@H](C)N(c2c(C#N)c(=O)n3c4c(c(-c5c(O)cccc5F)c(Cl)cc24)OCC3)C[C@H]1C` [Example 43, (R)-7-((2S,5R)-4-acryloyl-2,5-dimethylpiperazin-1-yl)-9-chloro-10-(2-fluoro-6-hydroxyphenyl)-5-oxo-3,5-dihydro-2H-[1,4]oxazino[2,3,4-ij]quinoline-6-carbonitrile], for which the CAF turned out to be 0.
For `C=CC(=O)N1C[C@H](C)N(c2nc(=O)n3c4c(c(-c5ccc(F)cc5F)c(Cl)cc24)OC[C@H]3CCCN2CC3(COC3)C2)C[C@H]1C` [Example 299, (3R)-3-(3-(2-oxa-6-azaspiro[3.3]heptan-6-yl)propyl)-7-((2S,5R)-4-acryloyl-2,5-dimethylpiperazin-1-yl)-9-chloro-10-(2,4-difluorophenyl)-2,3-dihydro-5H-[1,4]oxazino[2,3,4-ij]quinazolin-5-one], the “% CAF @ 10 μM,1 h” value was determined as 75.4%.
Consider `C=CC(=O)N1C[C@H](C)N(c2nc(=O)n3c4c(c(-c5ccc(F)cc5F)c(Cl)cc24)OC[C@H]3CCCN2C[C@H]3C[C@@H]2CO3)C[C@H]1C` [Example 315, (3R)-3-(3-((1R,4R)-2-oxa-5-azabicyclo[2.2.1]heptan-5-yl)propyl)-7-((2S,5R)-4-acryloyl-2,5-dimethylpiperazin-1-yl)-9-chloro-10-(2,4-difluorophenyl)-2,3-dihydro-5H-[1,4]oxazino[2,3,4-ij]quinazolin-5-one], for which the “% CAF @ 10 μM,1 h” value turned out to be 89.8%.
In the case of `C=CC(=O)N1C[C@H](C)N(c2nc(=O)n3c4c(c(-c5ccc(F)cc5F)c(Cl)cc24)OC[C@H]3CN2C[C@H]3CC[C@@H](C2)N3C)C[C@H]1C` [Example 285, (3R)-7-((2S,5R)-4-acryloyl-2,5-dimethylpiperazin-1-yl)-9-chloro-10-(2,4-difluorophenyl)-3-(((1R,5S)-8-methyl-3,8-diazabicyclo[3.2.1]octan-3-yl)methyl)-2H-[1,4]oxazino[2,3,4-ij]quinazolin-5(3H)-one], the “% CAF @ 10 μM,1 h” value is recorded as 86.2%.
As to `C=CC(=O)N1C[C@H](C)N(c2nc(=O)n3c4c(c(-c5ccc(F)c(Cl)c5)ccc24)OCC3)C[C@H]1C` [Example 12, 7-((2S,5R)-4-acryloyl-2,5-dimethylpiperazin-1-yl)-10-(3-chloro-4-fluorophenyl)-2H-[1,4]oxazino[2,3,4-ij]quinazolin-5(3H)-one], the “% CAF (60 min)” value under setting [2] was determined as 0%.
On the same count and under the same terms, the value for `C=CC(=O)N1CCN(c2nc(=O)n3c4c(c(-c5c(C)ccc6[nH]ncc56)c(Cl)cc24)OCC3)CC1` [Example 7, (R)-7-(4-acryloylpiperazin-1-yl)-9-chloro-10-(5-methyl-1H-indazol-4-yl)-2H-[1,4]oxazino[2,3,4-ij]quinazolin-5(3H)-one] was 79.6%.
Turning to `C=CC(=O)N1C[C@H](C)N(c2nc(=O)n3c4c(c(-c5ccc(F)cc5F)c(Cl)cc24)OC[C@H]3CN2CCOCC2)C[C@H]1C` [Example 204, (3R)-7-((2S,5R)-4-acryloyl-2,5-dimethylpiperazin-1-yl)-9-chloro-10-(2,4-difluorophenyl)-3-(morpholinomethyl)-2H-[1,4]oxazino[2,3,4-ij]quinazolin-5(3H)-one], the “% CAF @ 10 μM,1 h” value was 82%.
As for `C=CC(=O)N1C[C@H](C)N(c2nc(=O)n3c4c(c(-c5ccc(F)cc5F)c(Cl)cc24)OC[C@H]3CN2CCC2)C[C@H]1C` [Example 233, (3R)-7-((2S,5R)-4-acryloyl-2,5-dimethylpiperazin-1-yl)-3-(azetidin-1-ylmethyl)-9-chloro-10-(2,4-difluorophenyl)-2H-[1,4]oxazino[2,3,4-ij]quinazolin-5(3H)-one], the “% CAF @ 10 μM,1 h” value is 76%.
With `C=CC(=O)N1CCN(c2nc(=O)n3c4c(c(N(C)c5ccccc5C)c(Cl)cc24)OCC3)CC1` [Example 6], the “% CAF (60 min)” value under setting [2] was 17.6%.
As for `C=CC(=O)N1C[C@H](C)N(c2nc(=O)n3c4c(c(-c5c(O)cccc5F)c(Cl)cc24)OC[C@H]3CO)C[C@H]1C` [Example 30], the “% CAF (60 min)” value under setting [1] worked out at 68.1%.
Regarding `C=CC(=O)N1C[C@H](C)N(c2nc(=O)n3c4c(c(-c5cccc6ccccc56)c(Cl)cc24)OC[C@H]3CN2CCN(C)CC2)C[C@H]1C` (atropisomer, axis not shown) [Example 294, (3R,10R)-7-((2S,5R)-4-acryloyl-2,5-dimethylpiperazin-1-yl)-9-chloro-3-((4-methylpiperazin-1-yl)methyl)-10-(naphthalen-1-yl)-2H-[1,4]oxazino[2,3,4-ij]quinazolin-5(3H)-one], the “% CAF @ 10 μM,1 h” value came to 75.2%.
Take `C=CC(=O)N1CCN(c2nc(=O)n3c4c(c(-c5c(O)cccc5F)c(Cl)cc24)OC[C@@H]3CO)[C@@H](C)C1` (single isomer, unassigned) [Example 25]: the “% CAF (60 min)” value under setting [1] came out at 84.7%.
Consider `C=CC(=O)N1C[C@H](C)N(c2nc(=O)n3c4c(c(-c5ccc(F)cc5F)c(Cl)cc24)OC[C@H]3CC2CCN(C3CC3)CC2)C[C@H]1C` [Example 329, (3R)-7-((2S,5R)-4-acryloyl-2,5-dimethylpiperazin-1-yl)-9-chloro-3-((1-cyclopropylpiperidin-4-yl)methyl)-10-(2,4-difluorophenyl)-2H-[1,4]oxazino[2,3,4-ij]quinazolin-5(3H)-one], for which the “% CAF @ 10 μM,1 h” value turned out to be 73.4%.
`C=CC(=O)N1C[C@H](C)N(c2nc(=O)n3c4c(c(-c5c(C)ccc6[nH]ncc56)c(Cl)cc24)OC[C@@H]3CCCN2C3CCC2COC3)C[C@H]1C` [Example 281, (3S,10S)-3-(3-(3-oxa-8-azabicyclo[3.2.1]octan-8-yl)propyl)-7-((2S,5R)-4-acryloyl-2,5-dimethylpiperazin-1-yl)-9-chloro-10-(5-methyl-1H-indazol-4-yl)-2,3-dihydro-5H-[1,4]oxazino[2,3,4-ij]quinazolin-5-one]: the “% CAF @ 10 μM,1 h” value turned out to be 0%.
As for `C=CC(=O)N1C[C@H](C)N(c2nc(=O)n3c4c(c(-c5c(O)cccc5F)c(Cl)cc24)OC[C@@H]3CN2CCN(C)CC2)C[C@H]1C` (atropisomer, axis not shown) [Example 305, (3S,10R)-7-((2S,5R)-4-acryloyl-2,5-dimethylpiperazin-1-yl)-9-chloro-10-(2-fluoro-6-hydroxyphenyl)-3-((4-methylpiperazin-1-yl)methyl)-2,3-dihydro-5H-[1,4]oxazino[2,3,4-ij]quinazolin-5-one], the “% CAF @ 10 μM,1 h” value is recorded as 0%.
As to `C=CC(=O)N1C[C@H](C)N(c2nc(=O)n3c4c(c(-c5c(O)cccc5F)c(Cl)cc24)OC[C@H]3CN(C)CC(F)(F)F)C[C@H]1C` (atropisomer, axis not shown) [Example 241, (3R,10R)-7-((2S,5R)-4-acryloyl-2,5-dimethylpiperazin-1-yl)-9-chloro-10-(2-fluoro-6-hydroxyphenyl)-3-((methyl(2,2,2-trifluoroethyl)amino)methyl)-2H-[1,4]oxazino[2,3,4-ij]quinazolin-5(3H)-one], the “% CAF @ 10 μM,1 h” value is 0%.
In the case of `C=CC(=O)N1C[C@H](C)N(c2nc(=O)n3c4c(c(-c5c(F)cccc5C(F)F)ccc24)OCC3)C[C@H]1C` [Example 200, 7-((2S,5R)-4-acryloyl-2,5-dimethylpiperazin-l-yl)-10-(2-(difluoromethyl)-6-fluorophenyl)-2,3-dihydro-5H-1,4|oxazino[2,3,4-ij]quinazolin-5-one], the “% CAF @ 10 μM,1 h” value amounted to 0%.
Same read-out and setting: the value for `C=CC(=O)N1C[C@H](C)N(c2nc(=O)n3c4c(c(-c5ccc(F)cc5F)c(Cl)cc24)OC[C@@H]3CN2CCC2)C[C@H]1C` [Example 232, (3S)-7-((2S,5R)-4-acryloyl-2,5-dimethylpiperazin-1-yl)-3-(azetidin-1-ylmethyl)-9-chloro-10-(2,4-difluorophenyl)-2H-[1,4]oxazino[2,3,4-ij]quinazolin-5(3H)-one] was 82.4%.

The values above are taken from patent US12162893B2 (Erasca, Inc., priority 2020, dated 2024).
